Patent US4166810A, “Derivatives of 4-desacetyl VLB C-3 carboxyhydrazide” (priority 1978, dated 1979)
Read-outs that look alike come from different tables or passages of the source.

Experiments:
[1] = tested on: Gardner lymphosarcoma (GLS); assay: Transplanted tumor growth inhibition in mice, Gardner lymphosarcoma (GLS); assay type: in vivo; settings: for inhibition in vivo at 0.125 mg/kg: 0.125 mg/kg × 10 days; for inhibition in vivo at 0.25 mg/kg: 0.25 mg/kg × 10 days
Procedure: (§1) The compounds of this invention are active in inhibiting the growth of transplanted tumors in mice and/or in prolonging the life of tumor-innoculated mice. […] The size of the tumor was measured at 7 or 11 days where the drug inhibited tumor growth. Where life-prolongation was concerned, extra life span of treated animals over that of control animals was determined.
(§2) The following table--Table 1--gives the results of experiments in which mice bearing transplanted tumors were treated successfully with a compound of this invention. In the table, column 1 gives the name of the compound; column 2, the transplanted tumor; column 3, the dose level or dose level range and the number of days the dosage was administered; and column 4, the percent inhibition of tumor growth or percent prolongation of survival time, e.g., B16 (ROS is an abbreviation for Ridgeway osteogenic sarcoma; GLS for Gardner lymphosarcoma; P 1534 (J) for a leukemia and B16 for a malignant melanoma.

B16 malignant melanoma = assay: Survival prolongation in mice bearing B16 malignant melanoma; assay type: in vivo
Procedure: as §1, §2

[2] = tested on: Ridgeway osteogenic sarcoma; settings: Belgian Pat. No. 813,168; cited from earlier work
Gardner lymphosarcoma = settings: Belgian Pat. No. 813,168; cited from earlier work
P 1534(J) leukemia = settings: Belgian Pat. No. 813,168; cited from earlier work
transplanted tumors = settings: Belgian Pat. No. 813,168; cited from earlier work
[3] = tested on: experimental malignancies; settings: animals; cited from earlier work
leukemias = settings: clinical trial in humans; cited from earlier work
[4] = tested on: vincristine-resistant leukemias; settings: humans; cited from earlier work
[5] = humans; compared with vincristine; cited from earlier work
[6] = Mus musculus, 168 h, measured at 7 days, read-out: Percent Inhibition (of tumor growth), 7 days
[7] = Mus musculus, 264 h, measured at 11 days, read-out: Percent Inhibition (of tumor growth), 11 days

For `CCC1(O)CC2CN(CCc3c([nH]c4ccccc34)C(C(=O)OC)(c3cc4c(cc3OC)N(C)C3C(O)(C(=O)NNC(C)=O)C(O)C5(CC)C=CCN6CCC43C65)C2)C1` (stereo not shown) [4-Desacetyl VLB C-3 N^2-acetylcarboxhydrazide], the “Percent Inhibition (of tumor growth), 11 days” value ([1]; 0.5 mg/kg × 10 days, measured at 11 days) was “Toxic”, the inhibition in vivo at 0.125 mg/kg [1, 6] was 100% and the inhibition in vivo at 0.25 mg/kg [1, 6] was 100%. For the same compound, the inhibition in vivo at 0.5 mg/kg ([1]; Mus musculus, 168 h, 0.5 mg/kg × 10 days, measured at 7 days, read-out: Percent Inhibition (of tumor growth), 7 days) was 100%, the inhibition in vivo at 0.125 mg/kg [1, 7] was 93% and the inhibition in vivo at 0.25 mg/kg [1, 7] was 100%. For the same compound, the “Percent Prolongation (of survival time)” value (B16 malignant melanoma; 0.15 mg/kg × 3 days) was 71%, the “Percent Prolongation (of survival time)” value (B16 malignant melanoma; 0.3 mg/kg × 3 days) was 100% and the “Percent Prolongation (of survival time)” value (B16 malignant melanoma; 0.6 mg/kg × 3 days) was 109%. For the same compound, the “Percent Prolongation (of survival time)” value (B16 malignant melanoma; 0.9 mg/kg × 3 days) was 84% and the “Percent Prolongation (of survival time)” value (B16 malignant melanoma; 1.2 mg/kg × 3 days) was 69%.
For `CCC1(O)CC2CN(CCc3c([nH]c4ccccc34)C(C(=O)OC)(c3cc4c(cc3OC)N(C)C3C(O)(C(=O)NN)C(O)C5(CC)C=CCN6CCC43C65)C2)C1` (stereo not shown) [4-Desacetyl VLB C-3 carboxhydrazide], the “activity against Ridgeway osteogenic sarcoma” value [2] is given as “active”, the “activity against Gardner lymphosarcoma” value (Gardner lymphosarcoma) is given as “active” and the “activity against P 1534(J) leukemia” value (P 1534(J) leukemia) is given as “active”. The “anti-tumor activity against transplanted tumors in mice” value (transplanted tumors) was “active anti-tumor agent against transplanted tumors in mice”.
In the case of `CC[C@]12CN3CCc4c([nH]c5ccccc45)[C@@](C(=O)OC)(c4cc5c(cc4OC)N(C)[C@H]4[C@@](O)(C(=O)OC)[C@H](OC(C)=O)[C@]6(CC)C=CCN7CC[C@]54[C@@H]76)C[C@H](C3)[C@H]1O2` [leurosine], the “activity in the treatment of experimental malignancies” value (“activity in the treatment” below) [3] is listed as “found active in the treatment of experimental malignancies in animals”.
In the case of `CCC1(O)CN2CCc3c([nH]c4ccccc34)C(C(=O)OC)(c3cc4c(cc3OC)N(C)C3C(O)(C(=O)OC)C(OC(C)=O)C5(CC)C=CCN6CCC43C65)CC(C2)C1O` (stereo not shown) [vincadioline], the “activity in the treatment” value [3] is listed as “found active in the treatment of experimental malignancies in animals”.
In the case of `CC[C@]1(O)C[C@H]2CN(CCc3c([nH]c4ccccc34)[C@@](C(=O)OC)(c3cc4c(cc3OC)N(C=O)[C@H]3[C@@](O)(C(=O)OC)[C@H](OC(C)=O)[C@]5(CC)C=CCN6CC[C@]43[C@@H]65)C2)C1` [vincristine, leurocristine], the “activity in the treatment” value [3] is listed as “found active in the treatment of experimental malignancies in animals”.
In the case of `CC[C@]1(O)C[C@@H]2CN(CCc3c([nH]c4ccccc34)[C@@](C(=O)OC)(c3cc4c(cc3OC)N(C)[C@H]3[C@@](O)(C(N)=O)[C@H](O)[C@]5(CC)C=CCN6CC[C@]43[C@@H]65)C2)C1` [vindesine, 4-desacetyl VLB C-3 carboxamide], the activity in leukemias (leukemias) is given as “found active in certain leukemias”, the “effectiveness against vincristine-resistant leukemias” value [4] is given as “apparently effective against vincristine-resistant leukemias” and the neurotoxicity [5] is given as “less neurotoxicity than does vincristine”.
For leurosidine, the “activity in the treatment” value [3] is listed as “found active in the treatment of experimental malignancies in animals”.
